Measurements as given in US9884886B2, “Disulfide masked prodrug compositions and methods” (Merck Sharp & Dohme Corp., priority 2012, dated 2018).

Assay: Exposure of DTE- or DTT-based dimers to glutathione, release of dimer phosphodiester
Format: physicochemical
Protocol: The half life of prodrug-dimer 5-2 was dependent on the character and excess of the reducing reagent (500:1/Prodrug:GSH), in this instance approximately 4 hours. The kinetics of the release was also dependent on pH and 1M TRIS hydrochloride buffers of pH values varied between 5.0 and 7.8 were used.

C#CCO[C@@H]1CSSC[C@H]1OP(=O)(OC[C@H]1O[C@@H](n2ccc(=O)[nH]c2=O)[C@H](OC)[C@@H]1OC(=O)CCC(C)=O)O[C@H]1[C@@H](OC)[C@H](n2ccc(=O)[nH]c2=O)O[C@@H]1COC(c1ccccc1)(c1ccc(OC)cc1)c1ccc(OC)cc1 (stereo partly drawn) [Compound 5-2, (2R,3R,4R,5R)-2-{[({[(2R,3R,4R,5R)-2-{[bis(4-methoxyphenyl)(phenyl)methoxy]methyl}-5-(2,4-dioxo-3,4-dihydropyrimidin-1(2H)-yl)-4-methoxytetrahydrofuran-3-yl]oxy}{[(4S,5S)-5-(prop-2-yn-1-yloxy)-1,2-dithian-4-yl]oxy}phosphoryl)oxy]methyl}-5-(2,4-dioxo-3,4-dihydropyrimidin-1(2H)-yl)-4-methoxytetrahydrofuran-3-yl 4-oxopentanoate]
half-life (1M TRIS hydrochloride buffer with glutathione (GSH), pH 7.3, 500:1/Prodrug:GSH, pH 7.30, 1M TRIS hydrochloride buffer): ~4 h
release at acidic conditions (buffers of pH between 5.0 and 7.8): considerably slower
